According to publication PMC9698663, “Testing Serum Albumins and Cyclodextrins as Potential Binders of the Mycotoxin Metabolites Alternariol-3-Sulfate, Alternariol-9-Monomethylether and Alternariol-9-Monomethylether-3-Sulfate” (International Journal of Molecular Sciences, 2022):
Counter-ions that a name gives are not always drawn. Like-named read-outs stand apart in the source and are kept apart here.

Tests used:
[1] = Fluorescence spectroscopic study of mycotoxin–SGD complexes; assay type: binding; settings: for SGD logK (±SEM) BH-Plot / SGD logK (±SEM) Hyperquad: binding constant K in L/mol; for SGD logK (±SEM) BH-Plot: Benesi–Hildebrand plot; for SGD logK (±SEM) BH-Plot / SGD logK (±SEM) Hyperquad / logK with SGD (approximate): sodium acetate buffer pH 5.0; for logK of mycotoxin–SGD complexes at pH 10.0: sodium borate buffer pH 10.0
Procedure: (§1) Fluorescence emission spectra were collected employing a Hitachi F-4500 fluorescence spectrophotometer (Tokyo, Japan) at 25 °C and in the presence of air. UV–Vis absorption spectra of AS, AME, and AMS were recorded using a Jasco V730 UV–Vis spectrophotometer (Tokyo, Japan). In fluorescence spectroscopic studies, the inner-filter effects of mycotoxins were corrected as has been previously reported.
(§2) To examine the interaction of mycotoxins with the two CDs selected (SBECD and SGD), increasing amounts of the CDs (final concentrations: 0–10 mM) were added to mycotoxins (each 1 μM), then fluorescence emission spectra were recorded (λex = 335 nm for AS/AMS and 350 nm for AME; λem = 455 nm for AS, 485 nm for AME, and 460 nm for AMS). Binding constants (K, unit: L/mol) of mycotoxin–CD complexes were calculated employing the graphical application of the Benesi–Hildebrand equation (linear fitting) and using Hyperquad software (non-linear fitting). The Benesi–Hildebrand equation [25, 43] has been described as:(2) F0/F−F0=1/A+1/A×K×CD^n where, F0 and F are the fluorescence emission intensities of the mycotoxin in the absence and presence of CDs, respectively. [CD] is the molar concentration (mol/L) of the CD, while A is a constant, and n is the number of binding sites. Hyperquad evaluations were performed as has been previously reported.

[2] = target: T1, human serum albumin (HSA) (Homo sapiens, UniProt P02768); experiment: Ultracentrifugation studies (unbound fraction in presence of HSA); assay type: binding; set-up: purchased Merck (Darmstadt, Germany)
T1 sequence (P02768 25-609): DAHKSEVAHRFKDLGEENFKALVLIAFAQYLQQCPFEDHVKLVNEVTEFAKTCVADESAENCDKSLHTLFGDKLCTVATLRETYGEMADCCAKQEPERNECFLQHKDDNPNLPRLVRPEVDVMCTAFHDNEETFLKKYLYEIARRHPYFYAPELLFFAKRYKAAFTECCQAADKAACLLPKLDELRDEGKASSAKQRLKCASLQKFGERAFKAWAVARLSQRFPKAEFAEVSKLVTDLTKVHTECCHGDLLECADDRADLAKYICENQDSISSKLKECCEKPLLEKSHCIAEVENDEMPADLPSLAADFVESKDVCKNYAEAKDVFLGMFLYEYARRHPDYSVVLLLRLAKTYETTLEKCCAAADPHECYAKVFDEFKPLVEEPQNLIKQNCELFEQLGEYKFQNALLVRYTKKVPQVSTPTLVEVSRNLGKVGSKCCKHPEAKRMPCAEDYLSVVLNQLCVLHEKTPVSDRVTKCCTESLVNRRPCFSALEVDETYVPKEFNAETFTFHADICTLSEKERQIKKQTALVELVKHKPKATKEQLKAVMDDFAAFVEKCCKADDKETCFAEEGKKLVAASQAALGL
Procedure: To confirm the results of the quenching studies, the unbound fractions of AS, AME, and AMS were quantified in the presence of HSA. Applying the optimal conditions of ultracentrifugation, we can sediment albumin and albumin-bound molecules without the disruption of ligand–HSA interactions, then the free unbound fraction of the ligand molecule can be quantified from the protein-free supernatant. Samples contained AS, AME, or […] (each 10 μM) with HSA (20, 60, and 180 μM) in PBS (pH 7.4). These samples (900 μL) were centrifuged for 16 h at 170,000 g and 20 °C in 11 × 34 mm PC tubes (Beckman Coulter, Brea, CA, US), employing a Beckman Coulter Optima MAX-XP tabletop ultracentrifuge (with MLA-130 fixed-angle rotor). Then the concentrations of AS, AME, and AMS were directly analyzed from the supernatants with HPLC-FLD (see details in Section 3.7).
Assuming the 1:1 stoichiometry of complex formation, the binding constants (K) were calculated based on the following equation [36]:(3) K=MA/M×A where [M], [A], and [MA] are the molar concentrations (mol/L) of the free unbound mycotoxin, the free unbound albumin, and the mycotoxin–albumin complex, respectively.

[3] = target: T2, bovine serum albumin (BSA) (Bos taurus, UniProt P02769); experiment: Fluorescence quenching of bovine serum albumin by mycotoxins; assay type: binding; settings: for BSA logKSV (±SEM): Stern–Volmer quenching constant KSV in L/mol, linear fitting; for effect of environmental pH on binding to BSA: pH 5.0, 6.5, 7.4, 8.5, AME: pH 8.5 vs acidic and physiological conditions
T2 construct: purchased Merck (Darmstadt, Germany)
T2 sequence (P02769 25-607): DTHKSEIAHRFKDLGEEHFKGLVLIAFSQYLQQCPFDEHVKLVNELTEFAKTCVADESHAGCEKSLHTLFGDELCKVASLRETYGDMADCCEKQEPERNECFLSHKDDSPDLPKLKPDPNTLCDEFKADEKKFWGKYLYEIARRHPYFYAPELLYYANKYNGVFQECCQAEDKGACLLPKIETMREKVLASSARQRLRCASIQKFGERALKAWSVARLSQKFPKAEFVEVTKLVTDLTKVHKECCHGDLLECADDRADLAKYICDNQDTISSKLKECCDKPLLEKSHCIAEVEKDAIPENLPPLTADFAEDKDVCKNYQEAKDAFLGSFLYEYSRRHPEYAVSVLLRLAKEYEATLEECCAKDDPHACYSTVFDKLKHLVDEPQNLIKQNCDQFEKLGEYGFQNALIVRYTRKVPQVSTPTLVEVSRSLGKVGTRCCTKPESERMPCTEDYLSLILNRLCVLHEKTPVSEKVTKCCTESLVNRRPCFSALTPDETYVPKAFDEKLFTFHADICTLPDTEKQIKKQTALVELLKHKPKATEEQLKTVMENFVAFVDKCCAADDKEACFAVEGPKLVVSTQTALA
Procedure: as §1
(§3) Then, fluorescence quenching studies were also performed, where increasing amounts of AS, AME, or AMS (final concentrations: 0–5 μM) were added to 2 μM concentrations of albumins (HSA, BSA, PSA, or RSA), after which emission spectra were recorded (λex = 295 nm). After the correction of the inner-filter effects, mycotoxin-induced changes were evaluated at 340 nm.
(§4) Quenching experiments were evaluated by employing the graphical application of the Stern–Volmer equation (linear fitting) and using HyperQuad2006 software (non-linear fitting). Stern–Volmer quenching constants (KSV; unit: L/mol) were determined based on the Stern–Volmer equation [30]:(1) I0/I=1+KSV×Q where I0 and I are the fluorescence emission intensities of albumin in the absence and presence of the quencher (mycotoxins), respectively; [Q] is the molar (mol/L) concentration of mycotoxins. Binding constants (K; unit: L/mol) were calculated using HyperQuad2006 software, as has been previously reported.

rat serum albumin (RSA) [4] = target: T3, rat serum albumin (RSA) (Rattus norvegicus, UniProt P02770); experiment: Fluorescence quenching of rat serum albumin by mycotoxins; assay type: binding; settings: for RSA logKSV (±SEM): Stern–Volmer quenching constant KSV in L/mol, linear fitting
T3 construct: purchased Merck (Darmstadt, Germany)
T3 sequence (P02770 25-608): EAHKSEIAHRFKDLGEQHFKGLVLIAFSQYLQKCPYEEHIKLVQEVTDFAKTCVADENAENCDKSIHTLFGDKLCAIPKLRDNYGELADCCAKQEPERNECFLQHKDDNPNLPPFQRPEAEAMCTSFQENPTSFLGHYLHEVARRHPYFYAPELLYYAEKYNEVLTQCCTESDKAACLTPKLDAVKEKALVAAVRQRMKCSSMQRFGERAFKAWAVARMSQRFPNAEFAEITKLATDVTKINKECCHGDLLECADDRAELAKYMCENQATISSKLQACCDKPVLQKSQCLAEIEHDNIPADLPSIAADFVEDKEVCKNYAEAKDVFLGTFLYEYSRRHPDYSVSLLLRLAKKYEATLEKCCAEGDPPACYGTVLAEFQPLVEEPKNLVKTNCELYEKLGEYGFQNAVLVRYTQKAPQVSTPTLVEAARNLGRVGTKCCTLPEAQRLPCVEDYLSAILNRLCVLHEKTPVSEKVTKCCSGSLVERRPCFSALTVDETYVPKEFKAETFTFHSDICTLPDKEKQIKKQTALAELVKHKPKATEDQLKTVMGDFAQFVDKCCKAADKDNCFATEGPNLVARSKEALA
Procedure: as §1, §3, §4

[5] = target: T1, human serum albumin (HSA); experiment: Ultrafiltration studies with Site I, Site II and Heme site markers; assay type: binding; set-up: purchased Merck (Darmstadt, Germany); settings: mycotoxin 20 μM, PBS pH 7.4; for effect on filtered fraction of S-camptothecin (Heme site marker): camptothecin 1.0 μM + HSA 2.0 μM; for effect on filtered fraction of naproxen (Site II marker): naproxen 1.0 μM + HSA 1.5 μM; for effect on filtered fraction of warfarin (Site I marker): warfarin 1.0 μM + HSA 5.0 μM
Procedure: To test the binding sites of mycotoxin metabolites on HSA, ultrafiltration experiments were performed, where warfarin, naproxen, and S-camptothecin were used as Site I, Site II, and Heme site markers, respectively. Ultrafiltration studies were performed as described earlier, with minor modifications. Briefly, warfarin and naproxen samples were filtered using Amicon Ultra centrifugal filters (Merck, Darmstadt, Germany) with a 30 kDa molecular weight cut-off (MWCO) value. Camptothecin barely passed through these filters; therefore, the displacement of this Heme site marker was examined employing Pall Microsep Advance centrifugal devices (MWCO: 10 kDa; VWR, Budapest, Hungary). Each filter unit was washed once with water and once with PBS (pH 7.4). Thereafter, samples were centrifuged with a fixed angle rotor for 10 min at 7500 g and 25 °C. Before ultrafiltration, samples contained warfarin (1.0 μM) + HSA (5.0 μM), naproxen (1.0 μM) + HSA (1.5 μM), or camptothecin (1.0 μM) + HSA (2.0 μM) in the absence and presence of AS, AME, or AMS (each 20 μM) in PBS (pH 7.4). The filters used retain HSA (66.5 kDa) and albumin-bound ligands. Therefore, the elevated concentration of the site marker in the filtrate indicates its displacement from the protein [30, 36]. The concentrations of warfarin and camptothecin in the filtrate were analyzed by HPLC-FLD, while naproxen was quantified by HPLC-UV as has been previously reported.

[6] = target: T4, porcine serum albumin (PSA) (Sus scrofa, UniProt P08835); experiment: Fluorescence quenching of porcine serum albumin by mycotoxins; assay type: binding; settings: for PSA logKSV (±SEM): Stern–Volmer quenching constant KSV in L/mol, linear fitting
T4 construct: purchased Merck (Darmstadt, Germany)
T4 sequence (P08835 25-607): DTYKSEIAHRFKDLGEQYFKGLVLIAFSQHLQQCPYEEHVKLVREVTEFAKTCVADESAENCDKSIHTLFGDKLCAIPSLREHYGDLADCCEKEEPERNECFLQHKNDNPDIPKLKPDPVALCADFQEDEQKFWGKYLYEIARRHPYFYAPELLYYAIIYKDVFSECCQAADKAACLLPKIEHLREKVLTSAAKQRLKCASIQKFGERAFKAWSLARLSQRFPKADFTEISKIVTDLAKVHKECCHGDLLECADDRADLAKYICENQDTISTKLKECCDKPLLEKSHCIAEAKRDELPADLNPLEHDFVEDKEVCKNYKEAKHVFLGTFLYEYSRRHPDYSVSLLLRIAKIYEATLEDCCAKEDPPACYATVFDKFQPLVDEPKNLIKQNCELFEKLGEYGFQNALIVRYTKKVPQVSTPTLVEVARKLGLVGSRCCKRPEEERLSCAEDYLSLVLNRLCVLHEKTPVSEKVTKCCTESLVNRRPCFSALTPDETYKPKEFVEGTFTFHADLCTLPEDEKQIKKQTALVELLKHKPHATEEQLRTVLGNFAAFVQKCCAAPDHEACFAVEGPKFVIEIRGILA
Procedure: as §1, §3, §4

[7] = target: T1, human serum albumin (HSA); experiment: Fluorescence quenching of human serum albumin by mycotoxins; assay type: binding; set-up: purchased Merck (Darmstadt, Germany); settings: for HSA logKSV (±SEM): Stern–Volmer quenching constant KSV in L/mol, linear fitting
Procedure: as §1, §3, §4

[8] = Fluorescence spectroscopic study of mycotoxin–SBECD complexes; assay type: binding; settings: for SBECD logK (±SEM) BH-Plot / SBECD logK (±SEM) Hyperquad: binding constant K in L/mol; for SBECD logK (±SEM) BH-Plot: Benesi–Hildebrand plot; for SBECD logK (±SEM) BH-Plot / SBECD logK (±SEM) Hyperquad / logK with SBECD (approximate): sodium acetate buffer pH 5.0
Procedure: as §1, §2

rat serum albumin (RSA) [9] = target: T3, rat serum albumin (RSA); set-up: method as in PMID 31083629; settings: previous study; cited from earlier work
[10] = target: T1, human serum albumin (HSA); set-up: purchased Merck (Darmstadt, Germany); method as in PMID 31083629; settings: previous study; cited from earlier work
[11] = target: T1, human serum albumin (HSA); settings: cited from earlier work
[12] = mycotoxin 10 μM, HSA 20, 60, 180 μM, PBS pH 7.4, Equation (3), 1:1 stoichiometry, read-out: logK of mycotoxin–HSA complexes (ultracentrifugation) (converted)
[13] = binding constant K in L/mol, fluorescence quenching, Hyperquad non-linear fitting, read-out: BSA logK (±SEM) (converted)
[14] = binding constant K in L/mol, fluorescence quenching, Hyperquad non-linear fitting, read-out: RSA logK (±SEM) (converted)
[15] = binding constant K in L/mol, fluorescence quenching, Hyperquad non-linear fitting, read-out: PSA logK (±SEM) (converted)
[16] = binding constant K in L/mol, fluorescence quenching, Hyperquad non-linear fitting, PBS pH 7.4, read-out: HSA logK (±SEM) (converted)

Compound	SGD logK (±SEM) BH-Plot [1]	SGD logK (±SEM) Hyperquad [1]	logK of mycotoxin–SGD complexes at pH 10.0 [1]	BSA logKSV (±SEM) [3]	effect of environmental pH on binding to BSA [3]	RSA logKSV (±SEM) (rat serum albumin (RSA) [4])	effect on filtered fraction of S-camptothecin (Heme site marker) [5]	effect on filtered fraction of naproxen (Site II marker) [5]	effect on filtered fraction of warfarin (Site I marker) [5]	PSA logKSV (±SEM) [6]	HSA logKSV (±SEM) ([7]; PBS pH 7.4)	SBECD logK (±SEM) BH-Plot [8]	SBECD logK (±SEM) Hyperquad [8]	logK with SGD (approximate) [1]	Kd [2, 12] [µM]	Kd [3, 13] [µM]	Kd (rat serum albumin (RSA) [4]; [14]) [µM]	Kd [6, 15] [µM]	Kd [7, 16] [µM]	logK with SBECD (approximate) [8]	other results
COc1cc(O)c2c(=O)oc3cc(O)cc(C)c3c2c1 [AME, alternariol-9-monomethylether]	3.95 ± 0.01	4.06 ± 0.01	4.25 ± 0.06	4.93 ± 0.05	approximately ten-fold higher affinity	5.15 ± 0.06	no or only slight effects	no or only slight effects	statistically significant (p < 0.05) impact	4.73 ± 0.06	4.86 ± 0.05	3.46 ± 0.01	3.56 ± 0.01								stability of AME–SGD complex compared to CD complexes of the sulfate metabolites ([1]; pH 5.0): ten-fold; Kd [2]: 4.57 µM; Kd [3]: 9.12 µM; Kd (rat serum albumin (RSA) [4]): 5.13 µM; Kd [6]: 14.8 µM; Kd [7]: 11.5 µM; stability of AME–SBECD complex compared to CD complexes of the sulfate metabolites ([8]; pH 5.0): three-fold
COc1cc(O)c2c(=O)oc3cc(OS(=O)(=O)O)cc(C)c3c2c1 [AMS, alternariol-9-monomethylether-3-sulfate ammonium salt]	2.95 ± 0.05	3.21 ± 0.04	3.39 ± 0.10	5.81 ± 0.01	only minor changes	5.92 ± 0.03	large	moderate	did not affect	5.60 ± 0.02	5.42 ± 0.06	2.96 ± 0.01	3.08 ± 0.01	≈ 3	3.24	0.933	0.741	1.66	2.63	≈ 3	
Cc1cc(O)cc2oc(=O)c3c(O)cc(O)cc3c12 [AOH, Alternariol]																					affinity for rat albumin compared to human or porcine albumins (rat serum albumin (RSA) [9]): almost eight-fold higher affinity; displacement of naproxen (Site II marker) from HSA [10]: slightly displaced; displacement of warfarin (Site I marker) from HSA [10]: strongly displaced; effect on filtered fraction of camptothecin (Heme site marker) [10]: did not affect; logK of AOH–HSA complex [11]: 5.6
Cc1cc(OS(=O)(=O)O)cc2oc(=O)c3c(O)cc(O)cc3c12 [AS, Alternariol-3-sulfate ammonium salt]	2.83 ± 0.01	2.99 ± 0.03	3.18 ± 0.58	5.60 ± 0.01	only minor changes	5.85 ± 0.03	marked increases	lower but significant (p < 0.01) effect	marked increases	5.57 ± 0.02	5.44 ± 0.07	3.02 ± 0.01	3.02 ± 0.03	≈ 3	3.16	1.62	0.832	1.66	2.45	≈ 3	
